Experimental data reported in patent publication US9868743B2, “Macrocyclic molecules as HCV entry inhibitors” (priority 2013, dated 2018).
Read-outs that look alike come from different tables or passages of the source.

System: HCV pseudoparticles, genotype 1a HCV E1 and E2 envelope (H77C isolate)
Assay: HCV pseudoparticle infection assay (luciferase reporter, Huh7 cells)
Format: cell-based, HCV genotype 1a (H77C)
Conditions: Hepatitis C virus, Huh-7, 48 h
[1] = read-out: EC50 (nM) 1a (H77C), HCV pseudoparticle entry into Huh7 cells, luciferase 2 days after infection, average of duplicates
[2] = read-out: EC50 (nM) 1a (H77C), HCV pseudoparticle entry into Huh7 cells, luciferase 2 days after infection, class symbol
[3] = HCV pseudoparticle entry into Huh7 cells, luciferase 2 days after infection, class symbol, read-out: EC50 (nM) 1a (H77C)

Compound	EC50 [2]	other results
CC1(C)CNC(=O)c2ccc(cc2)Nc2nc(nc(OCC(F)(F)F)n2)NCc2ccc(c(Cl)c2)OCCCN(C(=O)/C=C/c2ccccc2)C1 [Example 1005]	0.01 to 10 nM	EC50 [1]: 1.51 nM
CC1(C)CNC(=O)c2ccc(cc2)Nc2nc(nc(OCC(F)(F)F)n2)NCc2ccc(c(Cl)c2)OCCCN(C(=O)CCc2nc3ccccc3s2)C1 [Example 1013]	0.01 to 10 nM	
CC1(C)CNC(=O)c2ccc(cc2)Nc2nc(nc(OCC(F)(F)F)n2)NCc2ccc(c(Cl)c2)OCCCN(C(=O)CN)C1 [Example 1009]	0.01 to 10 nM	
Cc1oc(=O)oc1COC(=O)N1CCCOc2ccc(cc2Cl)CNc2nc(nc(OCC(F)(F)F)n2)Nc2ccc(cc2)C(=O)NCC(C)(C)C1 [Example 2014]	0.01 to 10 nM	
CC1(C)CNC(=O)c2ccc(cc2)Nc2nc(nc(OCC(F)(F)F)n2)NCc2ccc(c(Cl)c2)OCCCN(C(=O)CCc2ccncc2)C1 [Example 1014]	0.01 to 10 nM	
CC1(C)CNC(=O)c2ccc(cc2)Nc2nc(nc(OCC(F)(F)F)n2)NCc2ccc(c(Cl)c2)OCCCN(C(=O)Oc2cccc3ccccc23)C1 [Example 2009]		EC50 (HCV pseudoparticle entry into Huh7 cells, luciferase 2 days after infection, average of duplicates, read-out: EC50 (nM) 1a (H77C)): 1.26 nM; EC50 [3]: 0.01 to 10 nM
CC1(C)CNC(=O)c2ccc(cc2)Nc2nc(nc(OCC(F)(F)F)n2)NCc2ccc(c(Cl)c2)OCCCN(C(=O)CC(C)(C)n2cccc2)C1 [Example 1015]	0.01 to 10 nM	EC50 [1]: 0.932 nM
CC1(C)CNC(=O)c2ccc(cc2)Nc2nc(nc(OCC(F)(F)F)n2)NCc2ccc(c(Cl)c2)OCCCN(C(=O)CCC(=O)c2ccccc2)C1 [Example 1017]	0.01 to 10 nM	
CC1(C)CNC(=O)c2ccc(cc2)Nc2nc(nc(OCc3cccnc3)n2)NCc2ccc(c(Cl)c2)OCCCN(C(=O)OCc2cccnc2)C1 [Example 2011]	10 to 1000 nM	
Cc1oc(=O)oc1COC(=O)N1CCCOc2ccc(cc2Cl)CNc2nc(nc(OCc3ccc(C(F)(F)F)cc3)n2)Nc2ccc(cc2)C(=O)NCC(C)(C)C1 [Example 2015]	0.01 to 10 nM	
CC1(C)CNC(=O)c2ccc(cc2)Nc2nc(nc(OCC(F)(F)F)n2)NCc2ccc(c(Cl)c2)OCCCN(C(=O)CNC(=O)OC(C)(C)C)C1 [Example 1010]	0.01 to 10 nM	
C=CCOC(=O)N1CCCOc2ccc(cc2Cl)CNc2nc(nc(OCC(F)(F)F)n2)Nc2ccc(cc2)C(=O)NCC(C)(C)C1 [Example 2003]	0.01 to 10 nM	
CC1(C)CNC(=O)c2ccc(cc2)Nc2nc(nc(OCC(F)(F)F)n2)NCc2ccc(c(Cl)c2)OCCCN(C#N)C1 [Example 3001]	0.01 to 10 nM	
CC1(C)CNC(=O)c2ccc(cc2)Nc2nc(nc(OCC(F)(F)F)n2)NCc2ccc(c(Cl)c2)OCCCN(C(=O)Oc2ccc3ccccc3c2)C1 [Example 2010]		EC50 [3]: 0.01 to 10 nM
C=COC(=O)N1CCCOc2ccc(cc2Cl)CNc2nc(nc(OCC(F)(F)F)n2)Nc2ccc(cc2)C(=O)NCC(C)(C)C1 [Example 2002]	0.01 to 10 nM	
CC(C)[C@@H]1CC[C@@H](C)C[C@H]1OC(=O)N1CCCOc2ccc(cc2Cl)CNc2nc(nc(OCC(F)(F)F)n2)Nc2ccc(cc2)C(=O)NCC(C)(C)C1 [Example 2005]	0.01 to 10 nM	EC50 [1]: 2.85 nM
CC1(C)CNC(=O)c2ccc(cc2)Nc2nc(nc(OCC(F)(F)F)n2)NCc2ccc(c(Cl)c2)OCCCN(C(=O)Cc2cccnc2)C1 [Example 1016]	0.01 to 10 nM	
CC1(C)CNC(=O)c2ccc(cc2)Nc2nc(nc(OCC(F)(F)F)n2)NCc2ccc(c(Cl)c2)OCCCN(C(=O)CCC(=O)O)C1 [Example 1008]	10 to 1000 nM	EC50 [1]: 23.9 nM

Compound	EC50 [2]	other results
CC1(C)CNC(=O)c2ccc(cc2)Nc2nc(nc(OCC(F)(F)F)n2)NCc2ccc(c(Cl)c2)OCCCN(C(=O)CCc2ccccc2)C1 [Example 1003]	0.01 to 10 nM	
Cc1oc(=O)oc1CN1CCCOc2ccc(cc2Cl)CNc2nc(nc(OCC(F)(F)F)n2)Nc2ccc(cc2)C(=O)NCC(C)(C)C1 [Example 5001]	0.01 to 10 nM	EC50 [1]: 7.67 nM
CC1(C)CNC(=O)c2ccc(cc2)Nc2nc(nc(OCC(F)(F)F)n2)NCc2ccc(c(Cl)c2)OCCCN(C(=O)/C=C/c2ccco2)C1 [Example 1007]	0.01 to 10 nM	
CC1(C)CNC(=O)c2ccc(cc2)Nc2nc(nc(OCC(F)(F)F)n2)NCc2ccc(c(Cl)c2)OCCCN(C(=O)Oc2ccc([N+](=O)[O-])cc2)C1 [Example 2008]		EC50 [3]: 0.01 to 10 nM
CC(C)[C@H]1CC[C@H](C)C[C@@H]1OC(=O)N1CCCOc2ccc(cc2Cl)CNc2nc(nc(OCC(F)(F)F)n2)Nc2ccc(cc2)C(=O)NCC(C)(C)C1 [Example 2004]	0.01 to 10 nM	
CC1(C)CNC(=O)c2ccc(cc2)Nc2nc(nc(OCC(F)(F)F)n2)NCc2ccc(c(Cl)c2)OCCCN(S(=O)(=O)/C=C/c2ccccc2)C1 [Example 4001]	0.01 to 10 nM	EC50 [1]: 0.555 nM
C#CCOC(=O)N1CCCOc2ccc(cc2Cl)CNc2nc(nc(OCC(F)(F)F)n2)Nc2ccc(cc2)C(=O)NCC(C)(C)C1 [Example 2001]	0.01 to 10 nM	
CC1(C)CNC(=O)c2ccc(cc2)Nc2nc(nc(OCC(F)(F)F)n2)NCc2ccc(c(Cl)c2)OCCCN(C(=O)Oc2ccccc2)C1 [Example 2006]		EC50 [3]: 0.01 to 10 nM
COc1ccc(OC(=O)N2CCCOc3ccc(cc3Cl)CNc3nc(nc(OCC(F)(F)F)n3)Nc3ccc(cc3)C(=O)NCC(C)(C)C2)cc1 [Example 2007]		EC50 [3]: 0.01 to 10 nM
CC1(C)CNC(=O)c2ccc(cc2)Nc2nc(nc(OCC(F)(F)F)n2)NCc2ccc(c(Cl)c2)OCCCN(C(=O)CCCc2ccccc2)C1 [Example 1004]	0.01 to 10 nM	
CC1(C)CNC(=O)c2ccc(cc2)Nc2nc(nc(OCC(F)(F)F)n2)NCc2ccc(c(Cl)c2)OCCCN(C(=O)c2ncoc2-c2ccccc2)C1 [Example 1012]	0.01 to 10 nM	
Cc1oc(=O)oc1COC(=O)N1CCCOc2ccc(cc2Cl)CNc2nc(nc(OCc3ccc(C(C)C)cc3)n2)Nc2ccc(cc2)C(=O)NCC(C)(C)C1 [Example 2016]	0.01 to 10 nM	EC50 [1]: 0.109 nM
Cc1oc(=O)oc1CN1CCCOc2ccc(cc2Cl)CN(Cc2oc(=O)oc2C)c2nc(nc(OCC(F)(F)F)n2)Nc2ccc(cc2)C(=O)NCC(C)(C)C1 [Example 5002]	0.01 to 10 nM	
CC1(C)CNC(=O)c2ccc(cc2)Nc2nc(nc(OCC(F)(F)F)n2)NCc2ccc(c(Cl)c2)OCCCN(C(=O)Cc2ccccc2)C1 [Example 1002]	0.01 to 10 nM	
CC1(C)CNC(=O)c2ccc(cc2)Nc2nc(nc(OCC(F)(F)F)n2)NCc2ccc(c(Cl)c2)OCCCN(C(=O)/C=C/c2ccoc2)C1 [Example 1006]	0.01 to 10 nM	
CC1(C)CNC(=O)c2ccc(cc2)Nc2nc(nc(OCC(F)(F)F)n2)NCc2ccc(c(Cl)c2)OCCCN(C(=O)c2ccccc2)C1 [Example 1001]	0.01 to 10 nM	EC50 [1]: 0.864 nM
CC1(C)CNC(=O)c2ccc(cc2)Nc2nc(nc(OCC(F)(F)F)n2)NCc2ccc(c(Cl)c2)OCCCN(C(=O)[C@@H]2C[C@H]2c2ccccc2)C1 [Example 1011]	0.01 to 10 nM	
CC1(C)CNC(=O)c2ccc(cc2)Nc2nc(nc(OCC(F)(F)F)n2)NCc2ccc(c(Cl)c2)OCCCN(C(=O)OCCOCc2ccccc2)C1 [Example 2013]	0.01 to 10 nM	
